The values below come from patent US20250049776A1, “AUTOPHAGY INDUCING COMPOUNDS AND USES THEREOF, IN PARTICULAR FOR A SYSTEMIC TREATMENT OF DISEASES AND CONDITIONS” (Samsara Therapeutics Inc., priority 2021, published 2025).

Molecules are shown by their SMILES. Where two headings read alike, the source gives them in different places.

This test deals with Human osteosarcoma U20S cells. The test can be described thus: Assay to measure lysosome and autolysosome formation (acidic vesicle formation, LysoView/LysoTracker staining). Format: cell-based. The following applies: U2OS cells, concentration of 0.8 μM; for activation at 0.8 µM: Homo sapiens. As for the experimental part: Lysosomes play a fundamental role in the autophagic pathway by fusing with autophagosomes and creating ‘autolysosomes’ in order to digest their contents. Stimulation of lysosome and autolysosome formation by a compound is indicative of a stimulation of autophagy. The ability of compounds to stimulate lysosome and autolysosome formation, and thus autophagy, in live cells was assessed via fluorescent microscopy using various fluorescent stains for labelling and tracking acidic organelles (including lysosomes and autolysosomes) such as: LysoView™ 650 (70059 and 70059-T, Biotium), LysoViewTM633 (70058 and 70058-T, Biotium) and LysoTracker™ Deep Red (L12492, ThermoFisher Scientific). The cellular phenotype was quantitatively assessed for the induction of acidic vesicle formation and compared to a non-treated control, thus providing a measure of the ability of the compound under investigation to stimulate autophagy.
Representative procedure using LysoView™633 dye or LysoTracker™ Deep Red dye: Human osteosarcoma U20S cells (40,000 cells/well) were seeded in a 24 well glass bottom plate (Sensoplate, Greiner Bio-One) and were incubated overnight in a humidified atmosphere at 37° C. and 5% CO2. Cells were grown in DMEM (Gibco) supplemented with 10% Fetal Bovine Serum (FBS) and 100 units/ml penicillin and 100 μg/ml streptomycin (Invitrogen). After the attachment period, cells were treated with different compounds of interest (at various concentrations in DMSO) or DMSO (non-treated control) in cell culture medium and were incubated for 24 hours. Compound-containing medium was removed and cells were incubated with pre-warmed cell culture medium containing 1× LysoView™ 633 (70058 and 70058-T, Biotium) or 50 nM LysoTracker™ Deep Red (L12492, ThermoFisher Scientific) for 45 minutes at 37° C. Finally, cell nuclei were stained for 10 minutes using Hoechst 33342 (1 μg/mL) and then the medium was replaced with fresh medium. The 24 well plate was then fitted into a heated stage on the microscope and cells maintained at 37° C. Images were captured using appropriate filter set for Cy5 and DAPI detection with the EVOS M7000 Microscope (ThermoFisher Scientific). The cellular phenotype was visually assessed for the induction of acidic vesicle formation relative to the non-treated control; multiple images were acquired and analyzed using ImageJ or Cell Profiler.

[1] abbreviates: read-out: Activity (percentage increase in acidic vesicle formation over the DMSO-treated control), Table 2.
Where [2] appears, read: read-out: Activity (percentage increase in acidic vesicle formation), Table 2a Preferred compounds.

As for `CCCN(C(=O)c1csc(-c2cnn(-c3ccccc3Cl)c2)n1)[C@@H]1CCNC1` [Compound 90, 2-[1-(2-chlorophenyl)-1H-pyrazol-4-yl]-N-propyl-N-[(3R)-pyrrolidin-3-yl]-1,3-thiazole-4-carboxamide], the activation at 0.8 µM under setting [1] was 10 to 30%. For the molecule `CCCN(C(=O)c1csc(-c2cnn(-c3ccccc3F)c2)n1)[C@H]1CCNC1` [Compound 92, 2-[1-(2-fluorophenyl)-1H-pyrazol-4-yl]-N-propyl-N-[(3S)-pyrrolidin-3-yl]-1,3-thiazole-4-carboxamide], the activation at 0.8 µM under setting [1] lay in the range of 50 to 100% and the activation at 0.8 µM under setting [2] lay in the range of 50 to 100%. Regarding `CCCN(C(=O)c1ccc(-c2cnn(-c3ccccc3)c2)[nH]1)[C@H]1CCNC1` [Compound 93, 5-(1-phenyl-1H-pyrazol-4-yl)-N-propyl-N-[(3S)-pyrrolidin-3-yl]-1H-pyrrole-2-carboxamide], the “Activity (percentage increase in acidic vesicle formation), Table 2b More preferred compounds” value is recorded as “++++ (a percentage increase in acidic vesicle of greater than 100% over the DMSO-treated control)”. The activation at 0.8 µM under setting [1] is more than 100%. In addition, the activation at 0.8 µM under setting [2] lay in the range of 50 to 100%. For `CCCN(C(=O)c1ccc(-c2cnn(-c3ccccc3)c2)[nH]1)[C@@H]1CCNC1` [Compound 94, 5-(1-phenyl-1H-pyrazol-4-yl)-N-propyl-N-[(3R)-pyrrolidin-3-yl]-1H-pyrrole-2-carboxamide], in that order: “++++ (a percentage increase in acidic vesicle of greater than 100% over the DMSO-treated control)”, more than 100% and 50 to 100%. With `CC(C)N(C(=O)c1csc(-c2cnn(-c3ccccc3F)c2)n1)C1CCNCC1` [Compound 95, 2-[1-(2-fluorophenyl)-1H-pyrazol-4-yl]-N-(piperidin-4-yl)-N-(propan-2-yl)-1,3-thiazole-4-carboxamide], the activation at 0.8 µM lay in the range of 50 to 100% under setting [1] and 50 to 100% under setting [2]. In the case of `CCCN(C(=O)c1csc(-c2cnn(-c3ccccc3F)c2)n1)[C@@H]1CCNC1` [Compound 97, 2-[1-(2-fluorophenyl)-1H-pyrazol-4-yl]-N-propyl-N-[(3R)-pyrrolidin-3-yl]-1,3-thiazole-4-carboxamide], under setting [1], the activation at 0.8 µM was 30 to 50%. With `CCCN(C(=O)c1ccc(-c2cnn(-c3ccccc3)c2)o1)[C@H]1CCNC1` [Compound 98, 5-(1-phenyl-1H-pyrazol-4-yl)-N-propyl-N-[(3S)-pyrrolidin-3-yl]furan-2-carboxamide], the activation at 0.8 µM by setting is: under setting [1], 50 to 100%; under setting [2], 50 to 100%.

Consider `CCCN(C(=O)c1ccc(-c2cnn(-c3ccccc3)c2)o1)[C@@H]1CCNC1` [Compound 99, 5-(1-phenyl-1H-pyrazol-4-yl)-N-propyl-N-[(3R)-pyrrolidin-3-yl]furan-2-carboxamide], for which the activation at 0.8 µM runs as follows: under setting [1], 50 to 100%; under setting [2], 50 to 100%.

In the case of `O=C(NCC1CCNCC1)c1ccc(-c2cnn(-c3ccccc3)c2)o1` [Compound 100, 5-(1-phenyl-1H-pyrazol-4-yl)-N-[(piperidin-4-yl)methyl]furan-2-carboxamide], the activation at 0.8 µM under setting [1] was 30 to 50%. With `NCCOCCNC(=O)c1ccc(-c2cnn(-c3ccccc3)c2)o1` [Compound 101, N-[2-(2-aminoethoxy)ethyl]-5-(1-phenyl-1H-pyrazol-4-yl)furan-2-carboxamide], under setting [1], the activation at 0.8 µM fell in the range of 30 to 50%. Same read-out and setting: the result for `O=C(c1csc(-c2cnn(-c3ccccc3)c2)n1)N1CCNCC1` [Compound 104, 1-[2-(1-phenyl-1H-pyrazol-4-yl)-1,3-thiazole-4-carbonyl]piperazine] reads 10 to 30%. In the case of `O=C(NC[C@@H]1CNCCO1)c1csc(-c2cnn(-c3ccccc3)c2)n1` [Compound 107, N-{[(2S)-morpholin-2-yl]methyl}-2-(1-phenyl-1H-pyrazol-4-yl)-1,3-thiazole-4-carboxamide], the activation at 0.8 µM under setting [1] is 10 to 30%. For the molecule `NCCOCCNC(=O)c1cc(-c2cnn(-c3ccccc3)c2)cs1` [Compound 110, N-[2-(2-aminoethoxy)ethyl]-4-(1-phenyl-1H-pyrazol-4-yl)thiophene-2-carboxamide], the activation at 0.8 µM lay in the range of 50 to 100% under setting [1] and 50 to 100% under setting [2]. `O=C(NCC1CCNCC1)c1cc(-c2cnn(-c3ccccc3)c2)cs1` [Compound 111, 4-(1-phenyl-1H-pyrazol-4-yl)-N-[(piperidin-4-yl)methyl]thiophene-2-carboxamide]: the activation at 0.8 µM under setting [1] was in the range of 30 to 50%. With `CCCN(C(=O)c1csc(-c2cnc(-c3ccccc3)o2)n1)C1CCNC1` (stereo not drawn) [Compound 116, 2-(2-phenyl-1,3-oxazol-5-yl)-N-propyl-], the activation at 0.8 µM by setting is: under setting [1], 50 to 100%; under setting [2], 50 to 100%. Turning to `CCCN(C(=O)c1ccc(-c2cnn(-c3ccccc3)c2)[nH]1)C1CCNC1` (stereo not drawn) [Compound 120, 5-(1-phenyl-1H-pyrazol-4-yl)-N-propyl-N-(pyrrolidin-3-yl)-1H-pyrrole-2-carboxamide], the activation at 0.8 µM by setting is: under setting [1], 50 to 100%; under setting [2], 50 to 100%. Regarding `CCCN(C(=O)c1csc(-c2ccc(-c3ccccc3)s2)n1)C1CCNC1` (stereo not drawn) [Compound 122, 2-(5-phenylthiophen-2-yl)-N-propyl-N-(pyrrolidin-3-yl)-1,3-thiazole-4-carboxamide], the “Activity (percentage increase in acidic vesicle formation), Table 2b More preferred compounds” value was “++++ (a percentage increase in acidic vesicle of greater than 100% over the DMSO-treated control)”. For the same molecule, under setting [1], the activation at 0.8 µM is more than 100%. Further, the activation at 0.8 µM under setting [2] is 50 to 100%. Consider `CCCN(C(=O)c1cc(-c2cnn(-c3ccccc3)c2)c[nH]1)C1CCNC1` (stereo not drawn) [Compound 123, 4-(1-phenyl-1H-pyrazol-4-yl)-N-propyl-N-(pyrrolidin-3-yl)-1H-pyrrole-2-carboxamide], for which the “Activity (percentage increase in acidic vesicle formation), Table 2b More preferred compounds” value is “++++ (a percentage increase in acidic vesicle of greater than 100% over the DMSO-treated control)”. Besides, the activation at 0.8 µM under setting [1] was more than 100%. Besides, the activation at 0.8 µM under setting [2] lay within 50 to 100%. `NC1CN(C(=O)c2csc(-c3cnn(-c4ccccc4)c3)n2)C1` [Compound 124, 1-[2-(1-phenyl-1H-pyrazol-4-yl)-1,3-thiazole-4-carbonyl]azetidin-3-amine]: the activation at 0.8 µM lay in the range of 50 to 100% under setting [1] and 50 to 100% under setting [2]. In the case of `CCCN(C(=O)c1csc(-c2cnn(-c3ccccc3)c2)c1)C1CCNC1` (stereo not drawn) [Compound 130, 5-(1-phenyl-1H-pyrazol-4-yl)-N-propyl-N-(pyrrolidin-3-yl)thiophene-3-carboxamide], under setting [1], the activation at 0.8 µM fell in the range of 10 to 30%. The same measure, in the same setting: the result for `CCCN(C(=O)c1ccc(-c2cnn(-c3ccccc3)c2)o1)C1CCNC1` (stereo not drawn) [Compound 140, 5-(1-phenyl-1H-pyrazol-4-yl)-N-propyl-N-(pyrrolidin-3-yl)furan-2-carboxamide] reads 10 to 30%.

Consider `CCCN(C(=O)c1cc(-c2cnn(-c3ccccc3)c2)cs1)C1CCNC1` (stereo not drawn) [Compound 141, 4-(1-phenyl-1H-pyrazol-4-yl)-N-propyl-N-(pyrrolidin-3-yl)thiophene-2-carboxamide], for which the activation at 0.8 µM runs as follows: under setting [1], 50 to 100%; under setting [2], 50 to 100%. For the molecule `N[C@H]1CCCN(C(=O)c2csc(-c3cnn(-c4ccccc4)c3)n2)C1` [Compound 142, (3S)-1-[2-(1-phenyl-1H-pyrazol-4-yl)-1,3-thiazole-4-carbonyl]piperidin-3-amine], under setting [1], the activation at 0.8 µM lay within 10 to 30%. Same read-out and setting: the value for `N[C@@H]1CCCN(C(=O)c2csc(-c3cnn(-c4ccccc4)c3)n2)C1` [Compound 143, (3R)-1-[2-(1-phenyl-1H-pyrazol-4-yl)-1,3-thiazole-4-carbonyl]piperidin-3-amine] was 10 to 30%. On the same count and under the same terms, the value for `CC1CCCN(C(=O)c2csc(-c3cnn(-c4ccccc4)c3)n2)C1CN` (stereo not drawn) [Compound 153, 1-{3-methyl-1-[2-(1-phenyl-1H-pyrazol-4-yl)-1,3-thiazole-4-carbonyl]piperidin-2-yl}methanamine] was 10 to 30%; that for `NCCCNC(=O)c1csc(-c2cnn(-c3ccccc3)c2)n1` [Compound 159, N-(3-aminopropyl)-2-(1-phenyl-1H-pyrazol-4-yl)-1,3-thiazole-4-carboxamide] was 30 to 50%; that for `NCCNC(=O)c1csc(-c2cnn(-c3ccccc3)c2)n1` [Compound 162, N-(2-aminoethyl)-2-(1-phenyl-1H-pyrazol-4-yl)-1,3-thiazole-4-carboxamide] was 10 to 30%. With `NC1CCCN(C(=O)c2csc(-c3cnn(-c4ccccc4)c3)n2)C1` (stereo not drawn) [Compound 167, 1-[2-(1-phenyl-1H-pyrazol-4-yl)-1,3-thiazole-4-carbonyl]piperidin-3-amine], the activation at 0.8 µM under setting [1] lay in the range of 10 to 30%.
